Biological target: T1, p53 Y220C (Homo sapiens, UniProt P04637, Y220C)
T1 construct: The recombinant protein was a truncation mutant containing only amino acids 94-312 of p53; made in house; host or cells: E. coli
Test: In vitro DNA binding activity assay (HTRF / TR-FRET): stabilization of p53 Y220C and increase of its DNA binding activity
Assay type: biochemical
Conditions: recombinant His-tagged p53 Y220C DNA binding domain (aa 94-312), biotin-labeled consensus DNA, incubated at 27° C. or 29° C. for 60 min
Method in brief: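 Compound effect on DNA binding of recombinant His-p53 Y220C (E. coli) to biotin-labeled consensus DNA, expressed as SC150, the concentration giving 50% increase versus untreated. Serial 3-fold DMSO dilutions of 4.5 mM stocks; room-temperature steps of 15 then 20 min.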

T1 sequence (P04637 94-312, change not shown): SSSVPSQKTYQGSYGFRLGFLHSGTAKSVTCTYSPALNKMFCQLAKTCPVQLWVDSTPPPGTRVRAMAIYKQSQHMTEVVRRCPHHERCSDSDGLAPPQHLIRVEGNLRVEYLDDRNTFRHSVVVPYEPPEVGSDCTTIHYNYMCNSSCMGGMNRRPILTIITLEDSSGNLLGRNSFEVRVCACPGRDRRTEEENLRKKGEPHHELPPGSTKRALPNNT

SMILES | SC150 (concentration of the compound required to increase the DNA binding activity by 50%)
CNc1cc(S(C)(=O)=O)ccc1OCC#Cc1cc2c(NC3CCN(CC(O)COC)CC3)cccc2n1CC(F)(F)F (stereo not drawn) [Compound 651A, l-{4-[(2-{3-[4-methanesulfonyl-2-(methylamino)phenoxy]prop-1-yn-1-yl}-1-(2,2,2-trifluoroethyl)-1H-indol-4-yl)amino]piperidin-1-yl}-3-methoxypropan-2-ol] | + (+ = 0 μM ≤ SC150 < 0.05 μM)
COc1cc(S(N)(=O)=O)ccc1NCC#Cc1cc2c(N[C@H]3CCO[C@@H](C)C3)cccc2n1CC(F)(F)F [Compound 1019A, 3-methoxy-4-{[3-(4-{[(2S,4S)-2-methyloxan-4-yl]amino}-1-(2,2,2-trifluoroethyl)-1H-indol-2-yl)prop-2-yn-1-yl]amino}benzene-1-sulfonamide] | + (+ = 0 μM ≤ SC150 < 0.05 μM)
CNC(=O)c1ccc(NCC#Cc2cc3c(N[C@H]4CC[C@H](N5CCOCC5)CC4)cccc3n2CC(F)(F)F)c(OC)c1 [Compound 172A, 3-methoxy-N-methyl-4-{[3-(4-{[(1R,4R)-4-(morpholin-4-yl)cyclohexyl]amino}-1-(2,2,2-trifluoroethyl)-1H-indol-2-yl)prop-2-yn-1-yl]amino}benzamide] | + (+ = 0 μM ≤ SC150 < 0.05 μM)
CCC(=O)NS(=O)(=O)c1ccc(NCC#Cc2cc3c(N[C@H]4CC[C@H](N5CC6(COC6)C5)CC4)cccc3n2CC(F)(F)F)c(OC)c1 [Compound 206A, N-(3-methoxy-4-{[3-(4-{[(1R,4R)-4-{2-oxa-6-azaspiro[3.3]heptan-6-yl}cyclo-hexyl]amino}-1-(2,2,2-trifluoroethyl)-1H-indol-2-yl)prop-2-yn-1-yl]amino}benzene-sulfonyl)propanamide] | + (+ = 0 μM ≤ SC150 < 0.05 μM)
COc1cc(C(=O)O)ccc1NCC#Cc1cc2c(NC3CCN(C4CCOCC4)CC3)cccc2n1CC(F)(F)F [Compound 724A, 3-methoxy-4-{1[3-(4-{[1-(oxan-4-yl)piperidin-4-yl]amino}-1-(2,2,2-trifluoroethyl)-1H-indol-2-yl)prop-2-yn-1-yl]amino}benzoic acid] | + (+ = 0 μM ≤ SC150 < 0.05 μM)
CS(=O)(=O)c1ccc(NCC#Cc2cc3c(N[C@H]4CC[C@@H](N5CCOCC5)CC4)cccc3n2CC(F)(F)F)c(OCC#N)c1 [Compound 186A, 2-(5-methanesulfonyl-2-{[3-(4-{[(1S,4S)-4-(morpholin-4-yl)cyclohexyl]amino}-1-(2,2,2-trifluoroethyl)-1H-indol-2-yl)prop-2-yn-1-yl]amino}phenoxy)acetonitrile] | + (+ = 0 μM ≤ SC150 < 0.05 μM)
CN1CCC(Nc2cccc3c2cc(C#CCNc2ccc(S(C)(=O)=O)s2)n3CC(F)(F)F)CC1 [Compound 523A] | + (+ = 0 μM ≤ SC150 < 0.05 μM)
CCOC(=O)c1ccc(NCC#Cc2cc3c(N[C@H]4CCN(C(C)C)C[C@H]4F)cccc3n2CC(F)(F)F)c(OC)c1 [Compound 825A] | + (+ = 0 μM ≤ SC150 < 0.05 μM)
CN(C)[C@H]1CC[C@@H](Nc2cccc3c2cc(C#CCNc2ccc(S(C)(=O)=O)cc2OCC#N)n3CC(F)(F)F)CC1 [Compound 82A, 2-(5-methanesulfonyl-2-{[3-(4-{[(1S,4S)-4-(dimethylamino)cyclohexyl]amino}-1-(2,2,2-trifluoro-ethyl)-1H-indol-2-yl)prop-2-yn-1-yl]amino}phenoxy)acetonitrile] | + (+ = 0 μM ≤ SC150 < 0.05 μM)
CCN1CCC(Nc2cccc3c2cc(C#CCNc2ccc(C(=O)NC)cc2OC)n3CC(F)(F)F)CC1 [Compound 535A, 4-[(3-{4-[(1-ethylpiperidin-4-yl)amino]-1-(2,2,2-trifluoroethyl)-1H-indol-2-yl}prop-2-yn-1-yl)amino]-3-methoxy-N-methylbenzamide] | + (+ = 0 μM ≤ SC150 < 0.05 μM)
COC[C@H](O)CN1CC[C@@H](Nc2cccc3c2cc(C#CCNc2ccc(C(=O)OC)cc2OC)n3CC(F)(F)F)[C@@H](F)C1 [Compound 878A] | + (+ = 0 μM ≤ SC150 < 0.05 μM)
CNC(=O)c1ccc(NCC#Cc2cc3c(N[C@H]4CC[C@H](N5CCC6(CCOC6)CC5)CC4)cccc3n2CC(F)(F)F)c(OC)c1 [Compound 409A, 3-methoxy-N-methyl-4-{[3-(4-{[(1R,4R)-4-{2-oxa-8-azaspiro[4.5]decan-8-yl}cyclohexyl]amino}-1-(2,2,2-trifluoroethyl)-1H-indol-2-yl)prop-2-yn-1-yl]amino}benzamide] | + (+ = 0 μM ≤ SC150 < 0.05 μM)
CS(=O)(=O)c1ccc(NCC#Cc2cc3c(N[C@H]4CC[C@H](N5CC6(CCOCC6)C5)CC4)cccc3n2CC(F)(F)F)c(OCC#N)c1 [Compound 303A, 2-(5-methanesulfonyl-2-{[3-(4-{[(1R,4R)-4-{7-oxa-2-azaspiro[3.5]nonan-2-yl}cyclohexyl]amino}-1-(2,2,2-trifluoroethyl)-1H-indol-2-yl)prop-2-yn-1-yl]amino}phenoxy)acetonitrile] | + (+ = 0 μM ≤ SC150 < 0.05 μM)
COc1cc(C(=O)O)ccc1NCC#Cc1cc2c(N[C@@H]3CCN(C(C)(C)C)C[C@@H]3F)cccc2n1CC(F)(F)F [Compound 1070A, 4-{[3-(4-{[(3S,4R)-1-tert-butyl-3-fluoropiperidin-4-yl]amino}-1-(2,2,2-trifluoroethyl)-1H-indol-2-yl)prop-2-yn-1-yl]amino}-3-methoxybenzoic acid] | + (+ = 0 μM ≤ SC150 < 0.05 μM)
COc1cc(C(=O)NC[C@H](C)O)ccc1NCC#Cc1cc2c(N[C@@H]3CCN(C)C[C@@H]3F)cccc2n1CC(F)(F)F [Compound 961A, 4-{[3-(4-{[(3S,4R)-3-fluoro-1-methylpiperidin-4-yl]amino}-1-(2,2,2-trifluoroethyl)-1H-indol-2-yl)prop-2-yn-1-yl]amino}-N-[(2S)-2-hydroxypropyl]-3-methoxybenzamide] | + (+ = 0 μM ≤ SC150 < 0.05 μM)
COc1cc(C(N)=O)ccc1NCC#Cc1cc2c(N[C@H]3CC[C@H](N(C)C)CC3)cccc2n1CC(F)(F)F [Compound 73A, 3-methoxy-4-{[3-(4-{[(1R,4R)-4-(dimethyl-amino)cyclohexyl]amino}-1-(2,2,2-trifluoroethyl)-1H-indol-2-yl)prop-2-yn-1-yl]amino}benzamide] | + (+ = 0 μM ≤ SC150 < 0.05 μM)
COc1cc(S(=O)(=O)N2CCN(C)CC2)ccc1NCC#Cc1cc2c(NC3CCOCC3)cccc2n1CC(F)(F)F [Compound 1011A, 2-[3-({2-methoxy-4-[(4-methylpiperazin-1-yl)sulfonyl]phenyl}amino)prop-1-yn-1-yl]-N-(oxan-4-yl)-1-(2,2,2-trifluoroethyl)-1H-indol-4-amine] | + (+ = 0 μM ≤ SC150 < 0.05 μM)
CCC(=O)OCC(CN1CCC(Nc2cccc3c2cc(C#CCNc2ccc(C(=O)NC)cc2OC)n3CC(F)(F)F)CC1)OC(=O)CC (stereo not drawn) [Compound 656A, 1-(4-{[2-(3-{[2-methoxy-4-(methylcarbamoyl)phenyl]amino}prop-1-yn-1-yl)-1-(2,2,2-trifluoroethyl)-1H-indol-4-yl]amino}piperidin-1-yl)-3-(propanoyloxy)propan-2-yl propanoate] | + (+ = 0 μM ≤ SC150 < 0.05 μM)
COc1cc(S(C)(=O)=O)ccc1NCC#Cc1cc2c(NC3CCC(N(C)C)CC3F)cccc2n1CC(F)(F)F (stereo not drawn) [Compound 41A] | + (+ = 0 μM ≤ SC150 < 0.05 μM)
CCOC(=O)c1ccc(NCC#Cc2cc3c(N[C@@H]4CCN(C(C)C)C[C@@H]4F)cccc3n2CC(F)(F)F)c(OC)c1 [Compound 821A] | + (+ = 0 μM ≤ SC150 < 0.05 μM)
CNC(=O)c1ccc(NCC#Cc2cc3c(N[C@H]4CC[C@H](N5CC6(COC6)C5)CC4)cccc3n2CC(F)(F)F)c(O)c1 [Compound 248A, 3-hydroxy-N-methyl-4-{[3-(4-{[(1R,4R)-4-{2-oxa-6-azaspiro[3.3]heptan-6-yl}cyclo-hexyl]amino}-1-(2,2,2-trifluoroethyl)-1H-indol-2-yl)prop-2-yn-1-yl]amino}benzamide] | + (+ = 0 μM ≤ SC150 < 0.05 μM)
COCCN1CCC(NC(=O)Nc2cccc3c2cc(C#CCNc2ccc(S(C)(=O)=O)cc2OC)n3CC(F)(F)F)CC1 [Compound 13A, 3-(2-{3-[(4-methanesulfonyl-2-methoxyphenyl)amino]prop-1-yn-1-yl}-1-(2,2,2-trifluoroethyl)-1H-indol-4-yl)-1-[1-(2-methoxyethyl)piperidin-4-yl]urea] | ++++ (++++ = 0.2 μM ≤ SC150 < 1 μM)
CCOc1cc(S(C)(=O)=O)ccc1NCC#Cc1cc2c(N[C@H]3CC[C@H](N4CC5(COC5)C4)CC3)cccc2n1CC(F)(F)F [Compound 234A, 2-{3-[(2-ethoxy-4-methanesulfonylphenyl)amino]prop-1-yn-1-yl}-N-[(1R,4R)-4-{2-oxa-6-azaspiro[3.3]heptan-6-yl}cyclohexyl]-1-(2,2,2-trifluoroethyl)-1H-indol-4-amine] | + (+ = 0 μM ≤ SC150 < 0.05 μM)
COc1cc(S(=O)(=O)NC2CCOCC2)ccc1NCC#Cc1cc2c(N[C@H]3CC[C@H](N(C)C)CC3)cccc2n1CC(F)(F)F [Compound 49A, 3-methoxy-N-(oxan-4-yl)-4-{[3-(4-{[(1R,4R)-4-(dimethylamino)cyclohexyl]amino}-1-(2,2,2-trifluoroethyl)-1H-indol-2-yl)prop-2-yn-1-yl]amino}benzene-1-sulfonamide] | + (+ = 0 μM ≤ SC150 < 0.05 μM)
